Data taken from patent US6838574B1, “Dicarba-closo-dodecarborane derivatives” (Institute of Medicinal Molecular Design, Inc., priority 1999, dated 2005).

Columns and labels:
Format in all cases: cell-based
[1] = target: T1, rat estrogen receptor (pCI-rER α) (Rattus norvegicus, UniProt P06211); test: Estrogenic activity, estrogen receptor-dependent luciferase reporter gene assay in COS-1 cells; details: for EC50: 50% of luciferase activity of β-estradiol at 10 nM (=100), COS-1; for Relative Activity (%) at the Same Amount of β-estradiol: β-estradiol = 100
T1 construct: expressed in transfected cells; host or cells: COS-1 cells
T1 sequence (P06211 1-600): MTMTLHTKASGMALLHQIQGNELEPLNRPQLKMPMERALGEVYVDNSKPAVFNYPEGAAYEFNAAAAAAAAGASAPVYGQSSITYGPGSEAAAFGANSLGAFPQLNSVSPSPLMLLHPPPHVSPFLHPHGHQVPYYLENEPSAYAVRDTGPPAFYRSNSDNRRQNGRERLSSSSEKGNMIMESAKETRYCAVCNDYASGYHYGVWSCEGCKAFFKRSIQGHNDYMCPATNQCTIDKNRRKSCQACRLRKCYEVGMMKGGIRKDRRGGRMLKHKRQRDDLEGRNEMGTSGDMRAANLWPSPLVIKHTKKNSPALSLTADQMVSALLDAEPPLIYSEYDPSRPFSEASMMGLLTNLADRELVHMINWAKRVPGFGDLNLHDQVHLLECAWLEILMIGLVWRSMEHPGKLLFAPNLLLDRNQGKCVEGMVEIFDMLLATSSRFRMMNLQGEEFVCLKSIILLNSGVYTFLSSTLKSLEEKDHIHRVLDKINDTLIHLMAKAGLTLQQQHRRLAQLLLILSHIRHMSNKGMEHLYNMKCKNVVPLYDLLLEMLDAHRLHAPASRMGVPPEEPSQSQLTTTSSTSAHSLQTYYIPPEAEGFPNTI
Procedure: As estrogenic activity, estrogen receptor-dependent transcriptional activation abilities of the test compounds were determined by the r porter gene assay using luciferase gene. COS-1 cells were cultured using a DMEM medium containing an antibiotics and 5% bovine fetal serum in the wells of 24 well plates (cell density: 5 to 6×10^4/well) at 37° C. for one night under 5% carbon dioxide. On the next day, the medium was changed to DMEM medium not containing Phenol Red. Using gene introducing reagent Tfx-20 (Promega), reporter plasmid EREx3-pGL-TK, in which rat estrogen receptor expression plasmid pCI-rER α and an estrogen responsive sequence were placed upstream of the luciferase gene, and β-galactosidase expression plasmid pCMV β used as an internal standard were introduced into cells. The cells were cultured for 2 h, and the medium was changed to DMEM not containing Phenol Red but containing active charcoal-treated serum.
The culture was added with each test compound dissolved in ethanol at various concentrations (final ethanol concentration at 0.5%) and then cultivation was continued at 37° C. for one night under 5% carbon dioxide. On the next day, the cells were lysed and enzymatic activity of luciferase expressed was measured by using a chemiluminometer. The values were standardized based on galactocidase enzymatic activity, and then compared with the values obtained by experiments using no test compound and used as values of activity at various concentrations. […] The estrogenic activities in the table are shown as concentrations for 50% activity (EC50 values) which give 50% activities relative to luciferase activity regarded as 100 that is expressed by treatment with the control compound β-estradiol at 10 nM. Each compound tested in this experiment has a high estrogenic activity.
Estrogenic activities, i.e., estrogen receptor-dependent transcriptional abilities of test compounds, were determined by the reporter gene assay using the luciferase gene in the same manner as those described above. In this experiment (Table 6), estrogenic activities at 0.1 nM, 1 nM, and 10 nM of the test compounds are shown as relative values in view of the luciferase activity regarded as 100 which is expressed at the same amounts of β-estradiol as a control, and intensities of activities were compared. Each compound tested in this experiment has high estrogenic activity.

[2] = test system: human promyelocytic leukemia cell strain HL-60; test: HL-60 differentiation with coexisting differentiation inducer Am80 (anti-differentiation activity); details: coexisting Am80 1×10^−9 M (Table 4)
[3] = test system: human promyelocytic leukemia cell strain HL-60; test: HL-60 differentiation induction, test compound alone; details: for differentiation inducing activity at low concentration (in words): 0.01 μM test compound; for differentiation inducing activity at low concentration (in words) / differentiation inducing activity (in words): HL-60; for percentage of differentiated cells, no coexisting compound: HL-60, 4 days, control <10; for differentiation inducing activity (in words): test compound alone
Procedure: Inhibitory activity against proliferation of human promyelocytic leukemia cell strain HL-60 was evaluated an index of anti-leukemia activity. Subcultured HL-60 cells were seeded with the initial cell number of 8×10^4 cells/ml in the RPMI 1640 medium containing bovine fetal serum and an antibiotics. Each test compound was added at various concentrations and the mixture was cultured at 37° C. Four days later, cell number was counted. Anti-leukemia activity of each test compound was shown in the tables as percentage values of differentiated cells, which cells were not differentiated in the absence of the test drug, […] observation and NBT reducing ability of the cells as indexes.

[4] = relative activity experiment (Table 6)
[5] = test compound 1 μM, morphology and NBT reducing ability

Substance | EC50 [1] [nM] | Relative Activity (%) at the Same Amount of β-estradiol ([1]; 1 nM) [%] | Relative Activity (%) at the Same Amount of β-estradiol ([1]; 10 nM) [%] | further results
1,12-bis(4-hydroxyphenyl)-1,12-dicarba-closo-dodecaborane [BE160] | 1 | – | – | –
1-(2-hydroxyethyl)-12-(4-(hydroxyphenyl)-1,12-dicarba-closo-dodecaborane [BE122] | – | 98 | 104 | Relative Activity (%) at the Same Amount of β-estradiol ([1]; 0.1 nM): 83%
1-(3-hydroxypropyl)-12-(4-hydroxyphenyl)-1,12-dicarba-closo-dodecaborane [BE123] | – | 56 | 79 | Relative Activity (%) at the Same Amount of β-estradiol ([1]; 0.1 nM): 29%
1-(4-hydroxyphenyl)-1,7-dicarba-closo-dodecaborane [BE200] | 2 | 45 | 72 | –
1-(4-hydroxyphenyl)-1,12-dicarba-closo-dodecaborane [BE100] | 0.7 | 63 | 82 | Relative Activity (%) at the Same Amount of β-estradiol ([1]; 0.1 nM): 51%; estrogenic activity compared with β-estradiol (in words) ([1]; EC50 experiment (Table 5)): much higher activity than that of β-estradiol
1-amino-12-(4-hydroxyphenyl)-1,12-dicarba-closo-dodecaborane [BE140] | 0.5 | – | – | estrogenic activity compared with β-estradiol (in words) ([1]; EC50 experiment (Table 5)): much higher activity than that of β-estradiol
1-hydrocarbonyl-12-(4-hydroxyphenyl)-12-dicarba-closo-dodecaborane [BE130] | 10 | – | – | –
1-hydroxy-12-(4-hydroxyphenyl)-1,12-dicarba-closo-dodecaborane [BE119] | – | 132 | 120 | Relative Activity (%) at the Same Amount of β-estradiol ([1]; 0.1 nM): 133%; estrogenic activity compared with β-estradiol (in words) [1, 4]: much higher activities than that of β-estradiol
1-hydroxyethyl-12-(4-hydroxyphenyl)-1,12-dicarba-closo-dodecaborane [BE121] | 1 | – | – | estrogenic activity compared with β-estradiol (in words) ([1]; EC50 experiment (Table 5)): much higher activity than that of β-estradiol
1-hydroxymethyl-12-(4-hydroxyphenyl)-1,12-dicarba-closo-dodecaborane [BE120] | 0.05 | 163 | 126 | Relative Activity (%) at the Same Amount of β-estradiol ([1]; 0.1 nM): 212%; estrogenic activity compared with β-estradiol (in words) ([1]; EC50 experiment (Table 5)): much higher activity than that of β-estradiol; estrogenic activity compared with β-estradiol (in words) [1, 4]: much higher activities than that of β-estradiol
1-methoxycarbonyl-12-(4-hydroxyphenyl)-1,12-dicarba-closo-dodecaborane [BE110] | 2 | – | – | –
4-(2,3,4,5,6,7,8,9,10,11-decamethyl-1,12-dicarba-closo-dodecaborane-1-carbonylamino) benzoic acid [BR630] | – | – | – | anti-differentiation activity (in words) [2]: remarkable anti-differentiation activities
4-(2,3,4,5,6,7,8,9,10,11-decamethyl-1,12-dicarba-closo-dodecaborane-1-carbonylamino) benzoic acid [BR635] | – | – | – | anti-differentiation activity (in words) [2]: remarkable anti-differentiation activities
4-[3-(2-propyl-1,2-dicarba-closo-dodecaboran-1-yl)phenylamino]benzoic acid [BR453] | – | – | – | differentiation inducing activity at low concentration (in words) [3]: activities were maintained; percentage of differentiated cells, no coexisting compound ([3]; test compound 0.01 μM): 80%; percentage of differentiated cells, no coexisting compound [3, 5]: 80%; differentiation inducing activity (in words) [3]: strong differentiation inducing activities
4-[4-(2-propyl-1,2-dicarba-closo-dodecaboran-1-yl)phenylamino]benzoic acid [BR403] | – | – | – | differentiation inducing activity at low concentration (in words) [3]: activities were maintained; percentage of differentiated cells, no coexisting compound ([3]; test compound 0.01 μM): 84%; percentage of differentiated cells, no coexisting compound [3, 5]: 82%; differentiation inducing activity (in words) [3]: strong differentiation inducing activities

Further lines, with some results ahead:

EC50 [1] [nM] | Relative Activity (%) at the Same Amount of β-estradiol ([1]; 1 nM) [%] | Relative Activity (%) at the Same Amount of β-estradiol ([1]; 10 nM) [%] | Substance | further results
1 | – | – | 1,7-bis(4-hydroxyphenyl)-1,7-dicarba-closo-dodecaborane [BE260] | –
– | 11 | 24 | 1-(2-hydroxyethyl)-7-(3-hydroxyphenyl)-1,7-dicarba-closo-dodecaborane [BE422] | –
– | 38 | 85 | 1-(2-hydroxyethyl)-7-(4-hydroxyphenyl)-1,7-dicarba-closo-dodecaborane [BE222] | –
– | 43 | 85 | 1-(2-hydroxyethyl)-12-(3-hydroxyphenyl)-1,12-dicarba-closo-dodecaborane [BE322] | –
– | 18 | 59 | 1-(2-hydroxymethyl)-7-(3-hydroxyphenyl)-1,7-dicarba-closo-dodecaborane [BE420] | –
– | 127 | 127 | 1-(2-hydroxymethyl)-12-(3-hydroxyphenyl)-1,12-dicarba-closo-dodecaborane [BE320] | Relative Activity (%) at the Same Amount of β-estradiol ([1]; 0.1 nM): 116%; estrogenic activity compared with β-estradiol (in words) [1, 4]: much higher activities than that of β-estradiol
– | 11 | 38 | 1-(3-hydroxyphenyl)-1,7-dicarba-closo-dodecaborane [BE400] | –
– | 20 | 59 | 1-(3-hydroxyphenyl)-1,12-dicarba-closo-dodecaborane [BE300] | –
– | <10 | 15 | 1-(3-hydroxypropyl)-7-(3-hydroxyphenyl)-1,7-dicarba-closo-dodecaborane [BE423] | –
– | 20 | 51 | 1-(3-hydroxypropyl)-7-(4-hydroxyphenyl)-1,7-dicarba-closo-dodecaborane [BE223] | –
– | 12 | 31 | 1-(3-hydroxypropyl)-12-(3-hydroxyphenyl)-1,12-dicarba-closo-dodecaborane [BE323] | –
– | 14 | 38 | 1-hydroxy-7-(3-hydroxyphenyl)-1,7-dicarba-closo-dodecaborane [BE419] | –
– | 40 | 71 | 1-hydroxy-7-(4-hydroxyphenyl)-1,7-dicarba-closo-dodecaborane [BE219] | –
– | 53 | 72 | 1-hydroxy-12-(3-hydroxy phenyl)-1,12-dicarba-closo-dodecaborane [BE319] | –
